Format in all cases: biochemical
One assay addresses T1, Aurora-2 (Aurora A) (Homo sapiens, UniProt O14965).
T1 sequence (O14965 1-403): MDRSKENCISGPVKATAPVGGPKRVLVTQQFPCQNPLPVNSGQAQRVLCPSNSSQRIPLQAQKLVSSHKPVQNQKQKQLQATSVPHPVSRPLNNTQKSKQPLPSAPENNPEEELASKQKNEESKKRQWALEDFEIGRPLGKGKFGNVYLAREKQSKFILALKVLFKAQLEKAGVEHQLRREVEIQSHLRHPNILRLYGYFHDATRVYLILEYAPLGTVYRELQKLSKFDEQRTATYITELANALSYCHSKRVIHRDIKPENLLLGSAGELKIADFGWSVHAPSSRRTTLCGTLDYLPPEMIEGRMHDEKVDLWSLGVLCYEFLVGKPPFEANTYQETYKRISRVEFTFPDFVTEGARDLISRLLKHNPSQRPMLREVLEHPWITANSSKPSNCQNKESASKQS
The experiment in a line: Aurora-2 (Aurora A) Inhibition Assay, coupled enzyme assay. To be noted: 400 μM ATP, 570 μM Kemptide, 40 nM Aurora-2, 30° C. The method, then:
Compounds are screened for their ability to inhibit Aurora-2 using a standard coupled enzyme assay (Fox et al., Protein Sci., (1998) 7, 2249). Assays are carried out in a mixture of 100 mM Hepes (pH7.5), 100 mM MgCl2, 1 mM DTT, 25 mM NaCl, 2.5 mM phosphoenolpyruvate, 300 μM NADH, 30 μg/ml pyruvate kinase and 10 μg/ml lactate dehydrogenase. Final substrate concentrations in the assay are 400 μM ATP (Sigma Chemicals) and 570 μM peptide (Kemptide, American Peptide, Sunnyvale, Calif.). Assays are carried out at 30° C. and in the presence of 40 nM Aurora-2.
An assay stock buffer solution is prepared containing all of the reagents listed above, with the exception of Aurora-2 and the test compound of interest. 55 μl of the stock solution is placed in a 96 well plate followed by addition of 2 μl of DMSO stock containing serial dilutions of the test compound (typically starting from a final concentration of 7.5 μM). The plate is preincubated for 10 minutes at 30° C. and the reaction initiated by addition of 10 μl of Aurora-2. Initial reaction rates are determined with a Molecular Devices SpectraMax Plus plate reader over a 10 minute time course. IC50 and Ki data are calculated from non-linear regression analysis using the Prism software package (GraphPad Prism version 3.0cx for Macintosh, GraphPad Software, San Diego Calif., USA). Compounds I-1 and I-2 inhibit Aurora-2 at a Ki value of <0.1 uM.

Another assay deals with T2, FLT-3 (Homo sapiens, UniProt P36888).
T2 sequence (P36888 27-993): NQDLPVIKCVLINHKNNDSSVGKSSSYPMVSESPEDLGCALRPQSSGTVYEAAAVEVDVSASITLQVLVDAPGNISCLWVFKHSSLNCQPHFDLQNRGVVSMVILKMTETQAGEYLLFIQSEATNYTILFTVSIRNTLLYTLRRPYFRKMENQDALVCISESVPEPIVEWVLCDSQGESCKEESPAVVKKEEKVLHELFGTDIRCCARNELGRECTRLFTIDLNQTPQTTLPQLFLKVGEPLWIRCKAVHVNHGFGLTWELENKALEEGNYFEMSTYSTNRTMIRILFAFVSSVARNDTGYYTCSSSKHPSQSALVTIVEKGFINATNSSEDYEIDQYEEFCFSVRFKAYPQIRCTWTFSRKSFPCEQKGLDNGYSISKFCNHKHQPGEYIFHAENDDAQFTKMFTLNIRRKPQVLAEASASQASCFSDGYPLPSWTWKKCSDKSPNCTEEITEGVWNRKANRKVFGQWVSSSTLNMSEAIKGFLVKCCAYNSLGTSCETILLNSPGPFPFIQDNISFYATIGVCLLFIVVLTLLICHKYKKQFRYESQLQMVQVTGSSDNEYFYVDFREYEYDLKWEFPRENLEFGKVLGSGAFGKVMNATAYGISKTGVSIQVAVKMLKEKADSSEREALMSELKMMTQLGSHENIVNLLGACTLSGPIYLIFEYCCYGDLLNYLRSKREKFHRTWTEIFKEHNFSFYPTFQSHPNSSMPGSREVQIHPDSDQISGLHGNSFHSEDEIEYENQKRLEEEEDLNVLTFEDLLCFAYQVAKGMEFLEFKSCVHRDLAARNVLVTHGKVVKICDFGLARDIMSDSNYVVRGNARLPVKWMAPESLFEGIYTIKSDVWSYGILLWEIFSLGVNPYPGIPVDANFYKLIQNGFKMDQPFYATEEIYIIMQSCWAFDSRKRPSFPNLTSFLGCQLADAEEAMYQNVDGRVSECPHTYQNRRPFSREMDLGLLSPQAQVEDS
The experiment in a line: FLT-3 Inhibition Assay, radiometric filter-binding. To be noted: 90 μM ATP, 0.5 mg/ml pE4Y, room temperature. The method, then: Compounds are screened for their ability to inhibit FLT-3 activity using a radiometric filter-binding assay. This assay monitors the 33P incorporation into a substrate poly(Glu, Tyr) 4:1 (pE4Y). Reactions are carried out in a solution containing 100 mM HEPES (pH 7.5), 10 mM MgCl2, 25 mM NaCl, 1 mM DTT, 0.01% BSA and 2.5% DMSO. Final substrate concentrations in the assay are 90 μM ATP and 0.5 mg/ml pE4Y (both from Sigma Chemicals, St Louis, Mo.). The final concentration of a compound of the present invention is generally between 0.01 and 5 μM. Typically, a 12-point titration is conducted by preparing serial dilutions from 10 mM DMSO stock of test compound. Reactions are carried out at room temperature.
Two assay solutions are prepared. Solution 1 contains 100 mM HEPES (pH 7.5), 10 mM MgCl2, 25 mM NaCl, 1 mg/ml pE4Y and […] (containing 0.3 mCi of [γ-33^P]ATP for each reaction). Solution 2 contains 100 mM HEPES (pH 7.5), 10 mM MgCl2, 25 mM NaCl, 2 mM DTT, 0.02% BSA and 3 nM FLT-3. The assay is run on a 96 well plate by mixing 50 μl each of Solution 1 and […] of the compounds of the present invention. The reaction is initiated with Solution 2. […] The amount of ^33P incorporation into pE4y is analyzed by a Packard Top Count Microplate Scintillation Counter (Meriden, Conn.). […]

A further assay deals with Aurora-1 (Aurora B) (Homo sapiens, UniProt Q96GD4). Put plainly: Aurora-1 (Aurora B) Inhibition Assay (Radiometric). As to conditions: 800 μM ATP, Kemptide, 25° C.; read-out: Ki, Aurora-1 (Aurora B) radiometric assay (sentence prints Aurora-2). The method, then:
An assay buffer solution is prepared which consisted of 25 mM HEPES (pH 7.5), 10 mM MgCl2, 0.1% BSA and 10% glycerol. A 22 nM Aurora-B solution, also containing 1.7 mM DTT and 1.5 mM Kemptide (LRRASLG), is prepared in assay buffer. To 22 μL of the Aurora-B solution, in a 96-well plate, is added 2 μl of a compound stock solution in DMSO and the mixture allowed to equilibrate for 10 minutes at 25° C. The enzyme reaction is initiated by the addition of 16 μl stock [γ-^33P]-ATP solution (˜20 nCi/μL) prepared in assay buffer, to a final assay concentration of 800 μM. The reaction is stopped after 3 hours by the addition of 16 μL 500 mM phosphoric acid and the levels of ^33P incorporation into the peptide substrate are determined by the following method. […] Levels of non-enzyme catalysed background radioactivity are determined by adding 16 μL of the 500 mM phosphoric acid to control wells, containing all assay components (which acts to denature the enzyme), prior to the addition of the [γ-^33P]-ATP solution. Levels of enzyme catalysed ^33P incorporation are calculated by subtracting mean background counts from those measured at each inhibitor concentration. […] Ki values are calculated from initial rate data by non-linear regression using the Prism software package (Prism 3.0, Graphpad Software, San Diego, Calif.). […]

Results on two compounds are retold here after patent publication US7737151B2, “Pyrazine kinase inhibitors” (Vertex Pharmaceuticals Incorporated, priority 2005, dated 2010).

Bounds are passed on as bounds.

Aurora-1 (Aurora B), sequence (Q96GD4 whole entry): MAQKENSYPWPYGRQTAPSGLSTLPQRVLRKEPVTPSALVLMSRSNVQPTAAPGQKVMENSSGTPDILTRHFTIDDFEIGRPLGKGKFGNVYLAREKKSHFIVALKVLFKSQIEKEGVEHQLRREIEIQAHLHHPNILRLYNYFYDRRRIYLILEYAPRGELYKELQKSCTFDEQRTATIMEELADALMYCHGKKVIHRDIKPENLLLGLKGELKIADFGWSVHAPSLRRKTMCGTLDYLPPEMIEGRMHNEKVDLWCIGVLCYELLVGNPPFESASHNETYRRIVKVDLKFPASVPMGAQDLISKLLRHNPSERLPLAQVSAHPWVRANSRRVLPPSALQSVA

In the case of `Cc1cnc(Nc2cncc(Sc3ccc(NC(=O)C4CC4)cc3)n2)s1` [Compound I-1, N-(4-(6-(5-methylthiazol-2ylamino)pyrazin-2-ylthio)phenyl)cyclopropanecarboxamide], the values for the Ki on Aurora-2 (Aurora A) and at FLT-3 were less than 100 nM and less than 1000 nM, respectively.

Regarding `Cc1cc(Nc2cncc(Sc3ccc(NC(=O)C4CC4)cc3)n2)[nH]n1` [Compound I-2, N-(4-(6-(3-methyl-1H-pyrazol-5-ylamino)pyrazin-2-ylthio)phenyl)cyclopropanecarboxamide], the Ki was less than 100 nM at Aurora-2 (Aurora A), less than 1000 nM on FLT-3 and less than 1000 nM at Aurora-1 (Aurora B).

By Ki is commonly meant the equilibrium dissociation constant of an inhibitor or competing ligand from its target.
